One test deals with T1, KDM6A (UTX) (Homo sapiens, UniProt O15550).
T1 construct: purchased BPS Bioscience
The test can be described thus: KDM cell-free assay (AlphaScreen, BPS Bioscience). Format: biochemical. The settings on record: recombinant human KDM6A (UTX); read-out: IC50. For orientation: Alpha assays give light when donor and acceptor beads are brought close together.

In a further test the target is T2, KDM4A (JMJD2A) (Homo sapiens, UniProt O75164).
T2 construct: purchased BPS Bioscience
The test can be described thus: KDM cell-free assay (AlphaScreen, BPS Bioscience). Format: biochemical. The settings on record: recombinant human KDM4A (JMJD2A); max tested 25 μM.

The target of the next test is KDM1A (LSD1) (Homo sapiens, UniProt O60341). Put plainly: KDM cell-free assay (AlphaScreen, BPS Bioscience).
For another test, the target named is KDM6B (JMJD3) (Homo sapiens, UniProt O15054). The test can be described thus: KDM cell-free assay (AlphaScreen, BPS Bioscience).
Sequence of KDM6B (JMJD3) (O15054 whole entry): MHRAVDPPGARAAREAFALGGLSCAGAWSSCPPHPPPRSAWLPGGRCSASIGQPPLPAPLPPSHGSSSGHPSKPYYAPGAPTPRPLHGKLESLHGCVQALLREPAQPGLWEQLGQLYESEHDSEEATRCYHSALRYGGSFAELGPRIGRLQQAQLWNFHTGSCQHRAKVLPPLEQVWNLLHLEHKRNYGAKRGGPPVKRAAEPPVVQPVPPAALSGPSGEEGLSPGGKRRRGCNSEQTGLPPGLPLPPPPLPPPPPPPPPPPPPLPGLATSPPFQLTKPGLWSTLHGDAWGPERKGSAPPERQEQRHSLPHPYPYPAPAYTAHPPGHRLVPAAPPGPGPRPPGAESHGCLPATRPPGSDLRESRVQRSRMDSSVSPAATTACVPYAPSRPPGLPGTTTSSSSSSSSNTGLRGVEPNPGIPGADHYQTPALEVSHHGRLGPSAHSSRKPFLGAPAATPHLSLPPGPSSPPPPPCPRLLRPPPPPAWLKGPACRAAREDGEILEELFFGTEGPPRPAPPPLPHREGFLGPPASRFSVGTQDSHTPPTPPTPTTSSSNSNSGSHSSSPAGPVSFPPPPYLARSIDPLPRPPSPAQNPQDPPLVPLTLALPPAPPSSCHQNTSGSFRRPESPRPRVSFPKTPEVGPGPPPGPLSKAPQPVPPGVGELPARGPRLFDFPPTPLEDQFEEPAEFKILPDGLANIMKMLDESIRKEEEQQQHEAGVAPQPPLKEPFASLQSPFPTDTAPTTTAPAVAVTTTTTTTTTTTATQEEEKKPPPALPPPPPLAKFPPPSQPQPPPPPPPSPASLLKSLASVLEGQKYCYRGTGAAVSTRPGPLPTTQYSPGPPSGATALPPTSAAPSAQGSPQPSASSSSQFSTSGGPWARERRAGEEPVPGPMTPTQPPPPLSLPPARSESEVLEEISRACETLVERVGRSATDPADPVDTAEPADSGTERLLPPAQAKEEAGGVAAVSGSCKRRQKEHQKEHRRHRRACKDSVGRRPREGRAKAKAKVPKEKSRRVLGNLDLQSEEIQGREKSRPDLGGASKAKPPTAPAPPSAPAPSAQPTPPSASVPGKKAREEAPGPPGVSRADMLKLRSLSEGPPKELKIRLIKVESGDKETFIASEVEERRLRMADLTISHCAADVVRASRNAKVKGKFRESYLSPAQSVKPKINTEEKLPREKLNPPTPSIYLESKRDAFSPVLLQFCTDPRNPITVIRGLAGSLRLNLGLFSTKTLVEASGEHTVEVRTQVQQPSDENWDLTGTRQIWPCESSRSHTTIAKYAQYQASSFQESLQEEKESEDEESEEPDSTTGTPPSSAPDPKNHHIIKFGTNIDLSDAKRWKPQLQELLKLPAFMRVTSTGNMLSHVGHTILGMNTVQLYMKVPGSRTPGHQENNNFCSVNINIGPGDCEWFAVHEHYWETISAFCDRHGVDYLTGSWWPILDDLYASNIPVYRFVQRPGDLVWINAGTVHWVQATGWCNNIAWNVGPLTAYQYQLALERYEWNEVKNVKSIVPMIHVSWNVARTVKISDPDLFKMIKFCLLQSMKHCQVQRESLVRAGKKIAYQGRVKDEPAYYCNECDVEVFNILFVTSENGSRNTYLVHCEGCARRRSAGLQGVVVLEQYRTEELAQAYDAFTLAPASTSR
For another test, the target named is KDM4C (JMJD2C) (Homo sapiens, UniProt Q9H3R0). The test can be described thus: KDM cell-free assay (AlphaScreen, BPS Bioscience).
Sequence of KDM4C (JMJD2C) (Q9H3R0 whole entry): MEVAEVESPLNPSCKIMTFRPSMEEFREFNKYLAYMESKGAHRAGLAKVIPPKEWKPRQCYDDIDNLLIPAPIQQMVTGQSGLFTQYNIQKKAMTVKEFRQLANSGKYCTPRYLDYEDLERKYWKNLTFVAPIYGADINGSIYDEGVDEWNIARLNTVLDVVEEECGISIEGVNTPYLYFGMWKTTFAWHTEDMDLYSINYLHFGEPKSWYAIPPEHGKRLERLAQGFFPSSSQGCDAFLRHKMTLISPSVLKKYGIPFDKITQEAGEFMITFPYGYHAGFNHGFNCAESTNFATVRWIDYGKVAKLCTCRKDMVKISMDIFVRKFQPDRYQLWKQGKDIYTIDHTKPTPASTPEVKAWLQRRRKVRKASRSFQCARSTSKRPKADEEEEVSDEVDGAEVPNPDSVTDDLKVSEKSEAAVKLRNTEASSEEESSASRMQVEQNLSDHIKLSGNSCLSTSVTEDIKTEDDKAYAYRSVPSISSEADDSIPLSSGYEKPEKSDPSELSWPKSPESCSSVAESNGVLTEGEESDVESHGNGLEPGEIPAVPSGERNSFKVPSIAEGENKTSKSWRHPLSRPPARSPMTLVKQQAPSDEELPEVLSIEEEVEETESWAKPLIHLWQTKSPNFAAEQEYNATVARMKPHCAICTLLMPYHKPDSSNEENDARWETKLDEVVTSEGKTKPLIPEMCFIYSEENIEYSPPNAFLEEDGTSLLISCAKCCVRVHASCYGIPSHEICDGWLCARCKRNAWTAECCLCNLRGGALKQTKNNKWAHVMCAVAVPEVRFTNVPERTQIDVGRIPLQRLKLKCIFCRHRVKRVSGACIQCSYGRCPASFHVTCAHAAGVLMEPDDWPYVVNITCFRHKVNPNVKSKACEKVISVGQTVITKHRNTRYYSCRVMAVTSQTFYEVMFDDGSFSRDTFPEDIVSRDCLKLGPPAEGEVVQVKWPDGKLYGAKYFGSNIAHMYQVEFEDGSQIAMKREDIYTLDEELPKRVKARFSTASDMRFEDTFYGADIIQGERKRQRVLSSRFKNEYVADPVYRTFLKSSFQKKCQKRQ
In a further test the target is KDM3B (JMJD1B) (Homo sapiens, UniProt Q7LBC6). Put plainly: KDM cell-free assay (AlphaScreen, BPS Bioscience).
Sequence of KDM3B (JMJD1B) (Q7LBC6 whole entry): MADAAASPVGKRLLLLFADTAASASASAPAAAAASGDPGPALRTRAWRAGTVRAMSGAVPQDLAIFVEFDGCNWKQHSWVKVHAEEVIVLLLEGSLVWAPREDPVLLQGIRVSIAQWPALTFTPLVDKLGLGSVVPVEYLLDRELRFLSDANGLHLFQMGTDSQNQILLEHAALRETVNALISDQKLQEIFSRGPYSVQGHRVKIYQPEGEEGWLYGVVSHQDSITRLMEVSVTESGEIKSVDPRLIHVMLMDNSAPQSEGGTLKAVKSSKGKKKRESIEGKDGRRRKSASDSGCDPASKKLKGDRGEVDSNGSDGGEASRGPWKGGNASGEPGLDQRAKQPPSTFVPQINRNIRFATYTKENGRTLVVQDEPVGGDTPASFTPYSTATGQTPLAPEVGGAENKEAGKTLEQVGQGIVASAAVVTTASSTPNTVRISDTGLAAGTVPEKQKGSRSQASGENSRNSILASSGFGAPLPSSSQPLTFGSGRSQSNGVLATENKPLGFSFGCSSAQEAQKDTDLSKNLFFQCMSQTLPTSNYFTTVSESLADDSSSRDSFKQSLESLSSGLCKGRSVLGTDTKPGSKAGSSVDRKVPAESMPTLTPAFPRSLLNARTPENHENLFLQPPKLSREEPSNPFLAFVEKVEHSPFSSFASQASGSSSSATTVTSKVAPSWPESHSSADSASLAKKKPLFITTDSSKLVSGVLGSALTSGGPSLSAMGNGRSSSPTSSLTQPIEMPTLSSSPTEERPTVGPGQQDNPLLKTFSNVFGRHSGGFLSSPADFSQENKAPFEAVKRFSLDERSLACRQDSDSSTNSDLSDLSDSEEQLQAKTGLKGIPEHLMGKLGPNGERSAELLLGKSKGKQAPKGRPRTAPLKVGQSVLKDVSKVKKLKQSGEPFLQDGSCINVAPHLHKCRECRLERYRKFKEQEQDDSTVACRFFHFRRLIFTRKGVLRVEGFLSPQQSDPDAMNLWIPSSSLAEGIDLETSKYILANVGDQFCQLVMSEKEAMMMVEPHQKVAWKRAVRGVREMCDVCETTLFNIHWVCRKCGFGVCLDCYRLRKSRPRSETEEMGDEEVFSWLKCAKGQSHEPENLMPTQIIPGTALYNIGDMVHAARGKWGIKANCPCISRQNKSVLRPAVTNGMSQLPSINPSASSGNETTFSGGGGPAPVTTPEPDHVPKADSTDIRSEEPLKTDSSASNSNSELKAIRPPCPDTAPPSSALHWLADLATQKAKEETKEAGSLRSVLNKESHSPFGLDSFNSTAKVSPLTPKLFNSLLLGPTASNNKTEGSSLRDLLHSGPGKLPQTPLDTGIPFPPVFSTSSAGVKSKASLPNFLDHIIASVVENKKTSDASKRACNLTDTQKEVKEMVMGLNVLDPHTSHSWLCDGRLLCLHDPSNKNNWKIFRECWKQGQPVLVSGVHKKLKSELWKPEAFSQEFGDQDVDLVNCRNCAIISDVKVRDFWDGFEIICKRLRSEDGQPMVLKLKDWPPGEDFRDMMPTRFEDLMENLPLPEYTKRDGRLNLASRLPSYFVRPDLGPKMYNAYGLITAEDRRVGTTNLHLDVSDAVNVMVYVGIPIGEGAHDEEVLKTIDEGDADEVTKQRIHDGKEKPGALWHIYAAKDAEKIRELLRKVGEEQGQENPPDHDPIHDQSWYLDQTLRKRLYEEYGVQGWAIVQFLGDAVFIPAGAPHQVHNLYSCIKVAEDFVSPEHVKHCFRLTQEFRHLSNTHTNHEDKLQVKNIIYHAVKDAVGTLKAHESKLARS
The next test concerns MDA-MB-231. Put plainly: Cell viability assay (MTS), antiproliferative activity. The settings on record: Homo sapiens, 72 h, Table 4. In kind it is cell-based. As to the method:
(§1) To preliminarily profile the bioactivity of these compounds, we adopted a streamlined approach which involved screening against KDM6A at two concentrations and evaluating antiproliferative activity against three representative cell lines – MCF-7 (ER(+) BCa), MDA-MB-231 (TNBC BCa) and Vero (a non-transformed cell line as control).
(§2) The In vitro proliferation assay was performed as reported previously[15],[16]. Detailed description of the protocol used is included in the Supplementary Information.
(§3) Cell Viability Assay. All cell lines were purchased form ATCC (Manassas, VA), and they were routinely cultured in different media recommended by the supplier. MCF-7 cells were cultured in non-phenol red DMEM (Corning, Manassas, VA) fortified with 10% charcoal treated fetal bovine serum (FBS; Atlanta Biologicals, GA) and 0.2 mM glutamine (Corning, Manassas, VA), whereas MDA-MB-231, DU-145, and Vero were cultured in DMEM with 10% FBS. […] After 24 h incubation in 37 °C under 5% CO2, cells were treated with serially diluted ligands with final DMSO concentration of 1% and incubated for additional 72 h. MTS (CellTiter 96 Aqueous One Solution Cell Proliferation Assays, Promega, Madison, WI) was added to each well 2.5 h prior to recording the absorbance at 490 nm.

Another test relates to MCF-7. The test is described as above. In kind it is cell-based. The note with it: Homo sapiens, MCF7, 72 h, Table 4. As to the method:
as §1, §2, §3

The subject of the next test is VERO. The test is described as above. Format: cell-based. The settings on record: Chlorocebus sabaeus, 72 h, Table 4. On the procedure: as §1, §2, §3
The next test has as its target KDM4D (JMJD2D) (Homo sapiens, UniProt Q6B0I6). Put plainly: KDM cell-free assay (AlphaScreen, BPS Bioscience).

By IC50 is commonly meant the concentration that inhibits the measured activity by half.

Sequence of KDM4D (JMJD2D) (Q6B0I6 whole entry): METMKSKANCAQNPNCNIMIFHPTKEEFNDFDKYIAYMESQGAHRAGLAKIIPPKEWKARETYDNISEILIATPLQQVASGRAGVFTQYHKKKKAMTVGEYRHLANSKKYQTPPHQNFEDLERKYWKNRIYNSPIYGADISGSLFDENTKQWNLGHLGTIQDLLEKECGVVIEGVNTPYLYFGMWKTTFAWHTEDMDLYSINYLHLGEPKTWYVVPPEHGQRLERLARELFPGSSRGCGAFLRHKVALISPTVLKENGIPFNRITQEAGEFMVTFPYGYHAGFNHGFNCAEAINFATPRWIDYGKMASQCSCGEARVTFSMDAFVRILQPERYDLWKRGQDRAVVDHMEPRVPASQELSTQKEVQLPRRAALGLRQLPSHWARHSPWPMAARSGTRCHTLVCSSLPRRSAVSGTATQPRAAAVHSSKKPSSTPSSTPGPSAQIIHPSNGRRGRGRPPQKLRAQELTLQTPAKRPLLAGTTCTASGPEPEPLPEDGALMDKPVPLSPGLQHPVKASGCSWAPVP

For `Cc1c(O)c(=O)ccn1C` [DFP, Deferiprone], the IC50 was 4.2 µM on KDM6A (UTX); above 25 µM at KDM4A (JMJD2A); above 25 µM against KDM1A (LSD1); above 25 µM against KDM6B (JMJD3); above 25 µM against KDM4C (JMJD2C); above 25 µM on KDM3B (JMJD1B). For the same compound, the IC50 in the test on MDA-MB-231 is 112 µM; in the test with MCF-7, 134 µM; with VERO, 85.9 µM; on KDM4D (JMJD2D) it was above 25 µM.

For the origin of these results see article PMC6423038, “Deferiprone: Pan-selective Histone Lysine Demethylase Inhibition Activity and Structure Activity Relationship Study” (Scientific Reports, 2019).
